From patent publication US20220372014A1, “NEUROPROTECTIVE COMPOUNDS AND METHODS OF USE THEREOF” (The Johns Hopkins University, priority 2019, published 2022)

Assays:
PARP = assay: MNNG-induced PAR accumulation (PARP activation), western blot; type: cell-based; settings: FIG. 12A
Method: Tissue lysate preparation and western blot analysis. Dissected brain regions of interest were homogenized and prepared in lysis buffer [50 mM Tris-HCl (pH 7.4), 150 mM NaCl, 1 mM EDTA, 1% Triton x-100, 0.5% SDS, 0.5% sodium-deoxycholate, phosphatase inhibitor mixture I and II (Sigma-Aldrich, St. Louis, Mo.), and complete protease inhibitor mixture (Roche, Indianapolis, Ind.)]. The samples were rotated at 4° C. for 30 min for the complete lysis and centrifugated at 15,000×g for 30 min. Protein concentrations were determined using the BCA assay (Pierce) and samples were separated using SDS polyacrylamide gels and transferred onto nitrocellulose membranes. The blots were blocked with 5% non-fat milk in TBS-T (Tris buffered saline with 0.1% Tween—20) for 1 h, probed using various primary antibodies. Target antigens were incubated with appropriate HRP-conjugated secondary antibodies (Cell signaling) and were visualized by ECL substrate.
Cell culture, transfection, primary neuronal culture and treatment. SH-SY5Y cells (ATCC) were cultured in DMEM containing 10% fetal bovine serum and penicillin/streptomycin at 37° C. under 5% C02. The cells were transfected using PolyFect reagent (Qiagen). Parthanatos was induced by the treatment of 50 μM MNNG for 15 min in SH-SY5Y cells. ABT-888 or PAAN/MIF inhibitors were pretreated with indicated concentration 1 h before MNNG treatment and cell death were assessed after 24 h. Primary cortical neurons from WT, PAAN/MIF KO, E22Q KI or P1G KI embryos were prepared as previously described See Kam et al. (2018) Science 362:eaat8407. Briefly, the cortex was dissected and cultured at embryonic day 16 in neurobasal media supplemented with B-27, 0.5 mM L-glutamine, penicillin and streptomycin (Invitrogen). Primary neurons were infected with AAV2-control, AAV2-PAAN/MIF WT, AAV2-PAAN/MIF E22Q, AAV2-PAAN/MIF E22A or AAV2-MIF P1G (ViGene Biosciences) at days in vitro (DIV) 4-5. ABT-888 or PAAN/MIF inhibitors were applied to neurons 1 h before α-syn PFF treatment. The neuron growth medium was replaced with fresh medium alone or including inhibitors every 3-4 days. α-syn PFF was added at DIV 7 and further incubated for indicated times followed by the cell death assay or biochemical experiments.

[1] = molecular target: T1, PAAN/MIF thiol-protein oxidoreductase activity (Homo sapiens, UniProt P14174); assay: Oxidoreductase activity assay (insulin reduction); type: biochemical; settings: 10 μM compounds
T1 construct: GST (N, cleaved yes); made in house; host or cells: Escherichia coli
T1 sequence (P14174 1-115): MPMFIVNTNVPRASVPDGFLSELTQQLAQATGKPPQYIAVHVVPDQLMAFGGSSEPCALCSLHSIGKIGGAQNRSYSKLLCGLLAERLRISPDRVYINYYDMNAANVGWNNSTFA
Method: Oxidoreductase activity assay. The thiol-protein oxidoreductase activity of PAAN/MIF was measured using insulin as the substrate as described previously. See Kudrin et al. (2006) J. Biol. Chem. 281:29641-51. Briefly, the insulin assay is based on the reduction of insulin and subsequent insolubilization of the insulin β-chain. The time-dependent increase in turbidity is then measured spectrophotometrically at 650 nm. The reaction was started by adding 5 μM PAAN/MIF WT in the presence or absence of 10 μM compounds (compounds 41, 56, 76, and 77) dissolved in 20 mM sodium phosphate buffer (pH 7.2), and 200 mM reduced glutathione (GSH) to ice-cold reaction mixture containing 1 mg/ml insulin, 100 mM sodium phosphate buffer (pH 7.2) and 2 mM EDTA. Insulin reduction was measured against the control solution (containing GSH) in the same experiment.

[2] = molecular target: T2, PAAN/MIF tautomerase activity (Homo sapiens, UniProt P14174); assay: Tautomerase activity assay (D-dopachrome methyl ester); type: biochemical; settings: 10 μM compounds
T2 construct: GST (N, cleaved yes); made in house; host or cells: Escherichia coli
T2 sequence (P14174 1-115): T1 sequence (P14174 1-115)
Method: Tautomerase activity assay. The keto-enol tautomeric conversion of D-dopachrome methyl ester by PAAN/MIF was used as described previously. See Bendraft et al. (1997) Biochemistry 36:15356-62. Briefly, a fresh solution of D-dopachrome methyl ester was prepared by mixing 2 mML-3,4 dihydroxyphenylalanine methyl ester with 4 mM sodium peroxidate for 5 m at room temperature and then placed directly on ice before use. The enzymatic reaction was initiated at 25° C. by adding 20 μl of the dopachrome methyl ester substrate to 200 μl of PAAN/MIF WT (final concentration 5 μM) with or without 10 μM compounds (compounds 41, 56, 76, and 77) in tautomerase assay buffer (50 mM potassium phosphate, 1 mM EDTA, pH 6.0). To enhance substrate stability, excess sodium meta-periodate was removed using […] disposable columns (Waters). The activity was determined by the decrease in absorbance at 475 nm using a spectrophotometer (Molecular Devices).

EcoRI = EcoRI (Escherichia coli, UniProt P00642); assay: In vitro nuclease assay of EcoRI (pcDNA3 substrate); type: biochemical
Method: Nuclease assay. Purified PAAN/MIF protein (4 μM) was incubated with compounds (10 μM) in the nuclease buffer [10 mM Tris-C1 (pH 7.0) and 10 mM MgCl2] for 20 m on ice. Then samples were added with 1 μM of PAAN/MIF substrate (PS30 or RF) and incubated for 1 h at 37° C. The reaction was terminated with loading buffer containing 10 mM EDTA and separated on 15% TBE-urea polyacrylamide (PAGE) gel or 20% TBE PAGE gel. For other nucleases (EcoRI and EcoRV) assays, pcDNA3 (500 ng/reaction) was used as a substrate and 0.01 unit of Exonulcase III were incubated with small dsDNA (Sequence ID NO 4:5′-[…]-3′ and Sequence ID NO 5:5′-[…]-3′).

Chain of EcoRI (P00642 whole entry): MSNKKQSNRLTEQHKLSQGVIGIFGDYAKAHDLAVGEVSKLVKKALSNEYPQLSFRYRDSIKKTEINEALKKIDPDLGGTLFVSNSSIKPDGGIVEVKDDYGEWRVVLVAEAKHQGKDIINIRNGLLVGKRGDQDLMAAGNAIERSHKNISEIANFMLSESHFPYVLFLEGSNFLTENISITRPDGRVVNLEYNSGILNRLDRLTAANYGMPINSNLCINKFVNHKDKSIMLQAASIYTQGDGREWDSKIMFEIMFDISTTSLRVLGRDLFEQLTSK

| Compound | MNNG-induced PARP activation (PAR accumulation) (PARP) | MIF's oxidoreductase activity [1] | MIF's tautomerase activity [2] | nuclease activity of EcoRI (EcoRI) |
| --- | --- | --- | --- | --- |
| COc1ccc(CC[C@H]2OC(=O)[C@@H]3CCCCN3C(=O)C(=O)C(C)(C)COC(=O)C=CCCN(C)C(=O)[C@@H]3CCCN3C(=O)[C@H](COC(C)(C)C)N(C)C(=O)C(c3ccccc3)NC(=O)CN(C)C(=O)COc3cccc2c3)cc1OC (stereo partly shown) [compound 41] | did not affect | Neither did they inhibit | Neither did they inhibit | do not inhibit |
| COc1ccc(CC[C@H]2OC(=O)[C@@H]3CCCCN3C(=O)C(=O)C(C)(C)COC(=O)C=CCCN(C)C(=O)[C@@H]3CCCN3C(=O)[C@H](COC(C)(C)C)N(C)C(=O)C(c3ccccc3)NC(=O)[C@H](C)N(C)C(=O)COc3cccc2c3)cc1OC (stereo partly shown) [compound 56] | did not affect | Neither did they inhibit | Neither did they inhibit | do not inhibit |
| COc1ccc(CC[C@H]2OC(=O)[C@@H]3CCCCN3C(=O)C(=O)C(C)(C)COC(=O)C=CCCN(C)C(=O)CNC(=O)[C@H](C(C)C)N(C)C(=O)[C@@H](Cc3ccccc3)NC(=O)[C@H](CC(C)C)N(C)C(=O)CCC(=O)Nc3cccc2c3)cc1OC [compound 76] | did not affect | Neither did they inhibit | Neither did they inhibit | do not inhibit |
| COc1ccc(CC[C@H]2OC(=O)[C@@H]3CCCCN3C(=O)C(=O)C(C)(C)COC(=O)C=CCCN(C)C(=O)[C@H](C)NC(=O)[C@H](C(C)C)N(C)C(=O)[C@@H](Cc3ccccc3)NC(=O)[C@H](CC(C)C)N(C)C(=O)CCC(=O)Nc3cccc2c3)cc1OC [compound 77] | did not affect | Neither did they inhibit | Neither did they inhibit | do not inhibit |
